Laboratory results as given in patent US8846704B2, “Thiopyrimidine-based compounds and uses thereof” (YM Biosciences Austraila Pty Ltd, priority 2007, dated 2014).

Columns and labels:
CTLL2 = assay: Cellular screening, CTLL2 cells, Alamar Blue; format: cell-based; settings: Mus musculus, CTLL-2, read-out: CTLL2 IC50_nM
Summary of the method: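 Viability is read with Alamar Blue at 544 nm, the dye added for the final 4-6 hours. Compounds were incubated for 40 hr with CTLL2 cells taken from late-log-phase culture, at 37° C in 5% CO2.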

BaF3 wild-type cells = assay: Cellular screening, BaF3 wild-type cells, Alamar Blue; format: cell-based; settings: Mus musculus, 40 hr, read-out: BAF3wt IC50_nM
Summary of the method: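 Compounds, screened from dilution plates at 20 μM, were added as 10× final stocks to cells grown in DMEM/10% FCS/10% WEHI 3B conditioned medium. Cells were seeded at 1.1× final (50,000–200,000 cells/mL) and incubated 40 hr at 37° C, 5% CO2. Viability was read at 544 nm after a further 4–6 hours with Alamar Blue.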

human JAK3 = target: T1, human JAK3 (Homo sapiens, UniProt P52333); assay: Alphascreen tyrosine kinase enzyme assay, JAK3 kinase domain; format: biochemical; settings: read-out: JAK3 IC50_nM
T1 construct: The kinase domain of human JAK3 was amplified; GST (N); made in house; host or cells: Sf9 insect cells (baculovirus)
Summary of the method: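 GST-affinity-purified human JAK3 kinase domain (baculovirus/Sf9) was pre-incubated 20 min with compound ([…]) in HEPES pH 7.5 buffer with MgCl2, vanadate and Tween 20. Biotinylated peptide substrate ([…]) and ATP were then added; phosphotyrosine was detected by AlphaScreen PY100 acceptor and streptavidin donor beads after 2–3 h.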

human JAK2 = target: T2, human JAK2 (Homo sapiens, UniProt O60674); assay: Alphascreen tyrosine kinase enzyme assay, JAK2 kinase domain; format: biochemical; settings: read-out: JAK2 IC50_nM
T2 construct: The kinase domain of human JAK2 was amplified; GST (N); made in house; host or cells: Sf9 insect cells (baculovirus)
Summary of the method: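 JAK2 kinase domain expressed in baculovirus/Sf9 and glutathione-affinity purified. Compounds (final […]) pre-incubated 20 min with enzyme in 10 mM HEPES pH 7.5, MgCl2, NaCl, vanadate, 0.1% Tween 20.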

[1] = target: T3, BaF3 TELJAK2 cells (BafT_J2) (Homo sapiens, UniProt O60674); assay: Cellular screening, BaF3 TEL:JAK2 cells, Alamar Blue; format: cell-based; settings: 40 hr, read-out: BafT_J2 IC50_nM
T3 construct: fused on or other part: TEL (ETV6) N-terminal part, coding nucleotides 1-487, serves as the oligomerising partner; It is fused through a Sal I site to the JAK2 kinase domain and expressed from pTRE2 in BaF3 cells bearing pTET-off; P41212 (Transcription factor ETV6)
Summary of the method: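 Tet-off BaF3 cells carrying a TEL (nt 1-487)–JAK2 kinase-domain fusion, grown factor-independently in DMEM with 10% Tet-approved FBS without WEHI 3B medium. Compounds were diluted to 20 μM in screening plates, and cells (50,000–200,000 cell/mL at 1.1×) were incubated 40 hr at 37 °C, 5% CO2. Alamar Blue was then added for 4-6 hours; read at 544 nm.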

T1 sequence (P52333 822-1111 limits assumed): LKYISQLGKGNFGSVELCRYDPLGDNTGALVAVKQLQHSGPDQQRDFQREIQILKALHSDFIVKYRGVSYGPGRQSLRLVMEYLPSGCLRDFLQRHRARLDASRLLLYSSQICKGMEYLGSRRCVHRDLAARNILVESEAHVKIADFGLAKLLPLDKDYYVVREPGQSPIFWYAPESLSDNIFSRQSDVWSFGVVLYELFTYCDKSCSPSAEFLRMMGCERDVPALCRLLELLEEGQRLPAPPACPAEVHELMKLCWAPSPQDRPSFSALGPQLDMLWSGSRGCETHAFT
T2 sequence (O60674 849-1124 limits assumed): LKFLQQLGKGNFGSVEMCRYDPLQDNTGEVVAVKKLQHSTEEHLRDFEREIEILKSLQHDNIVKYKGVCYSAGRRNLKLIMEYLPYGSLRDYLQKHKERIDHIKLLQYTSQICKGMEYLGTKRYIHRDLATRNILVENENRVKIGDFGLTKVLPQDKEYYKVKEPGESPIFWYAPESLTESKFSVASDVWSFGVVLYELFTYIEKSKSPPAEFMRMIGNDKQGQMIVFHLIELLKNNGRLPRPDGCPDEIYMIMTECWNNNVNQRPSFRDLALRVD
T3 sequence (O60674 whole entry, change not shown, the tested form may be a part): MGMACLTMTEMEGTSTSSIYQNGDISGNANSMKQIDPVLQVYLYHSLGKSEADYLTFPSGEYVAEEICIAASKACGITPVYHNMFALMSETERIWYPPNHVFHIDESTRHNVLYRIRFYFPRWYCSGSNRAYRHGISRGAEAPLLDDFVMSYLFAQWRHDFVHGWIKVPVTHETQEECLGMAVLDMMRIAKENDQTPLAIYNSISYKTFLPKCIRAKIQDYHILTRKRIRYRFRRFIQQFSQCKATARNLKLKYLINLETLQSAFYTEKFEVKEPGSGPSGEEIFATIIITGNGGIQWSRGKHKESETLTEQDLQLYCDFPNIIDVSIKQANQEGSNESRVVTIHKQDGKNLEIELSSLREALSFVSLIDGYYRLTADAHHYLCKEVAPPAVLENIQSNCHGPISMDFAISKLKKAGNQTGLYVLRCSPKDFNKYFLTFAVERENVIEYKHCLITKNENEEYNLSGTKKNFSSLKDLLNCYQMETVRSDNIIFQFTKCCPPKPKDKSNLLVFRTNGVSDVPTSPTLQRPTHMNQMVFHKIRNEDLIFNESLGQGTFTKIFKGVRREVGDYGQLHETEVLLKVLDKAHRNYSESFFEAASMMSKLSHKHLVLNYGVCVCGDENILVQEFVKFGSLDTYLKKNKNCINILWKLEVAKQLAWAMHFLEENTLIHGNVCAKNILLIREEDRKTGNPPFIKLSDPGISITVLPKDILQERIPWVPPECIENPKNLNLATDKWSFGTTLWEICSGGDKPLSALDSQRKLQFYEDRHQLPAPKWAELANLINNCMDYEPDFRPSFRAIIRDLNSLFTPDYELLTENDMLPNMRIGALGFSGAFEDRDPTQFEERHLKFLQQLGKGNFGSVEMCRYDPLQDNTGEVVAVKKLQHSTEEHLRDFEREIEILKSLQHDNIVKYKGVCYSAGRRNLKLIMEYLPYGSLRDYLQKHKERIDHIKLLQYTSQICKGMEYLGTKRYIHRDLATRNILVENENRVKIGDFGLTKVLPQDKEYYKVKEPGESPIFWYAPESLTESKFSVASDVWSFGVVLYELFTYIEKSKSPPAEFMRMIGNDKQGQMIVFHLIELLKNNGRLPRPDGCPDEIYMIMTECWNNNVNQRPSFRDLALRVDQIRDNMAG

| Structure (SMILES) | IC50 (CTLL2) | IC50 (BaF3 wild-type cells) | IC50 (human JAK3) | IC50 (human JAK2) | GI50 [1] |
| --- | --- | --- | --- | --- | --- |
| Cc1cnc(Nc2ccc(N3CCOCC3)cc2)nc1Sc1ccc(NC(=O)CCC(=O)O)cc1 [Compound 383, 4-(4-(5-methyl-2-(4-morpholinophenylao)pyrimidin-4-ylthio)phenylao)-4-oxobutanoic acid] | < 20 µM | < 20 µM | < 0.1 µM | < 0.5 µM | < 20 µM |
| C=CC(=O)Nc1ccc(Sc2ccnc(Nc3ccc(N4CCC(N5CCCC5)CC4)cc3)n2)cc1 [Compound 87, N-(4-(2-(4-(4-(pyrrolidin-1-yl)piperidin-1-yl)phenylao)pyrimidin-4-ylthio)phenyl)acrylamide] | < 1 µM | < 5 µM | < 0.1 µM | > 1 µM | < 5 µM |
| C=CC(=O)Nc1ccc(Sc2ccnc(Nc3ccc(F)c(C#N)c3)n2)cc1 [Compound 354, N-(4-(2-(3-cyano-4-fluorophenylao)pyrimidin-4-ylthio)phenyl)acrylamide] | < 20 µM | < 20 µM | < 0.1 µM | > 1 µM | < 20 µM |
| CCC(=O)Nc1ccc(Sc2nc(Nc3ccc(N4CCOCC4)cc3)ncc2Cl)cc1 [Compound 347, N-(4-(5-chloro-2-(4-morpholinophenylao)pyrimidin-4-ylthio)phenyl)propionamide] | < 5 µM | > 20 µM | < 0.1 µM | > 1 µM | > 20 µM |
| C=CC(=O)Nc1ccc(Sc2ccnc(Nc3ccc(OC)cc3)n2)cc1 [Compound 74, N-(4-(2-(4-methoxyphenylao)pyrimidin-4-ylthio)phenyl)acrylamide] | < 5 µM | > 20 µM | < 0.1 µM | > 1 µM | > 20 µM |
| C=CC(=O)Nc1ccc(Sc2ccnc(Nc3ccc(Cl)cc3)n2)cc1 [Compound 353, N-(4-(2-(4-chlorophenylao)pyrimidin-4-ylthio)phenyl)acrylamide] | < 5 µM | > 20 µM | < 0.1 µM | > 1 µM | < 20 µM |
| Cc1cnc(Nc2ccc(N3CCOCC3)cc2)nc1Sc1ccc(NC(=O)/C=C/Cl)cc1 [Compound 343, (E)-3-chloro-N-(4-(5-methyl-2-(4-morpholinophenylao)pyrimidin-4-ylthio)phenyl)acrylamide] | < 5 µM | < 20 µM | < 0.1 µM | > 1 µM | < 20 µM |
| C=CC(=O)Nc1ccc(Sc2ccnc(Nc3cccc(S(=O)(=O)N4CCOCC4)c3)n2)cc1 [Compound 372, N-(4-(2-(3-(morpholinosulfonyl)phenylao)pyrimidin-4-ylthio)phenyl)acrylamide] | < 5 µM | < 5 µM | < 0.1 µM | > 1 µM | < 5 µM |
| C=CC(=O)Nc1ccc(Sc2nc(Nc3ccc4c(c3)OCO4)ncc2C)cc1 [Compound 284, N-(4-(2-(benzo[d][1,3]dioxol-5-ylao)-5-methylpyrimidin-4-ylthio)phenyl)acrylamide] | < 1 µM | < 20 µM | < 0.1 µM | > 1 µM | < 20 µM |
| C=CC(=O)Nc1ccc(Sc2nc(Nc3cccc(OC(F)(F)F)c3)ncc2C)cc1 [Compound 289, N-(4-(5-methyl-2-(3-(trifluoromethoxy)phenylao)pyrimidin-4-ylthio)phenyl)acrylamide] | < 1 µM | > 20 µM | < 0.1 µM | > 1 µM | < 20 µM |
| C=CC(=O)Nc1cccc(Sc2ccnc(Nc3ccc(OC)cc3)n2)c1 [Compound 120, N-(3-(2-(4-methoxyphenylao)pyrimidin-4-ylthio)phenyl)acrylamide] | < 5 µM | > 20 µM | < 0.1 µM | > 1 µM | < 20 µM |
| C=CC(=O)Nc1ccc(Sc2ccnc(Nc3cccc(S(N)(=O)=O)c3)n2)cc1 [Compound 364, N-(4-(2-(3-sulfamoylphenylao)pyrimidin-4-ylthio)phenyl)acrylamide] | < 1 µM | < 20 µM | < 0.1 µM | > 1 µM | < 5 µM |
| CC#CC(=O)Nc1ccc(Sc2ccnc(Nc3ccc(N4CCOCC4)cc3)n2)cc1 [Compound 104, N-(4-(2-(4-morpholinophenylao)pyrimidin-4-ylthio)phenyl)but-2-ynamide] | < 5 µM | > 20 µM | < 0.1 µM | > 1 µM | > 20 µM |
| Nc1ccc(Sc2nc(Nc3ccc(N4CCOCC4)cc3)ncc2I)cc1 [Compound 309, 4-(4-aophenylthio)-5-iodo-N-(4-morpholinophenyl)pyrimidin-2-ae] | < 1 µM | < 5 µM | < 0.5 µM | > 1 µM | < 5 µM |
| C=CC(=O)Nc1ccc(Sc2nc(Nc3ccc(N4CCC(C(=O)OCC)CC4)cc3)ncc2C)cc1 [Compound 292, ethyl 1-(4-(4-(4-acrylamidophenylthio)-5-methylpyrimidin-2-ylao)phenyl)piperidine-4-carboxylate] | < 5 µM | > 20 µM | < 0.1 µM | > 1 µM | > 20 µM |
| COc1cc(Sc2ccnc(Nc3ccc(N4CCOCC4)cc3)n2)ccc1N [Compound 117, 4-(4-ao-3-methoxyphenylthio)-N-(4-morpholinophenyl)pyrimidin-2-ae] | < 20 µM | < 5 µM | < 0.5 µM | > 1 µM | < 20 µM |
| C=CC(=O)Nc1ccc(Sc2ccnc(Nc3ccc(S(=O)(=O)NCCC(C)C)cc3)n2)cc1 [Compound 371, N-(4-(2-(4-(N-isopentylsulfamoyl)phenylao)pyrimidin-4-ylthio)phenyl)acrylamide] | < 5 µM | < 20 µM | < 0.1 µM | > 1 µM | < 20 µM |
| C=CC(=O)Nc1ccc(Sc2ccnc(Nc3ccccc3O)n2)cc1 [Compound 279, N-(4-(2-(2-hydroxyphenylao)pyrimidin-4-ylthio)phenyl)acrylamide] | < 20 µM | < 20 µM | < 0.1 µM | > 1 µM | < 20 µM |
| C=CC(=O)Nc1ccc(Sc2ccnc(Nc3ccc(OC)c(O)c3)n2)cc1 [Compound 97] | < 1 µM | < 20 µM | < 0.1 µM | > 1 µM | < 5 µM |
| C=CC(=O)Nc1ccc(Sc2nc(Nc3ccc(N4CCOCC4)cc3)ncc2C)c(Cl)c1C [Compound 171, N-(3-chloro-2-methyl-4-(5-methyl-2-(4-morpholinophenylao)pyrimidin-4-ylthio)phenyl)acrylamide] | < 20 µM | > 20 µM | < 0.1 µM | > 1 µM | > 20 µM |
| Cc1cnc(Nc2ccc(N3CCOCC3)cc2)nc1Sc1ccc(NC(=O)/C=C/C(=O)O)cc1 [Compound 387, (E)-4-(4-(5-methyl-2-(4-morpholinophenylao)pyrimidin-4-ylthio)phenylao)-4-oxobut-2-enoic acid] | > 20 µM | > 20 µM | < 0.1 µM | < 1 µM | > 20 µM |
| C=CC(=O)Nc1ccc(Sc2ccnc(Nc3ccc4c(c3)OCO4)n2)cc1 [Compound 393, N-(4-(2-(benzo[d][1,3]dioxol-5-ylao)pyrimidin-4-ylthio)phenyl)acrylamide] | < 5 µM | > 20 µM | < 0.1 µM | > 1 µM | < 20 µM |
